This is an account of results in patent US20250144094A1 (Erasca, Inc., priority 2021, published 2025).

Where only a bound is given, the exact number is not on record here.

For this experiment, the target named is Recombinant human ULK1 (1-649) (Homo sapiens (Human), UniProt O75385). The experiment is described as follows: ULK1 ADP Glo kinase activity assay, new method (ULKtide peptide substrate). The note with it: 25° C., 40 minutes, read-out: ULK1 biochemical IC50. An outline of the steps:
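Kinase activity was read as ADP production (ADP-Glo, luminescence 30 min after detection reagent) following a 40-min, 25 °C reaction of Sf9-expressed GST-ULK1 (1-649) with ULKtide substrate and ATP. Compounds ran as 12-point series starting at 10 μM; four-parameter curve fitting versus DMSO wells gave IC50.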

Sequence of Recombinant human ULK1 (1-649) (O75385 1-649): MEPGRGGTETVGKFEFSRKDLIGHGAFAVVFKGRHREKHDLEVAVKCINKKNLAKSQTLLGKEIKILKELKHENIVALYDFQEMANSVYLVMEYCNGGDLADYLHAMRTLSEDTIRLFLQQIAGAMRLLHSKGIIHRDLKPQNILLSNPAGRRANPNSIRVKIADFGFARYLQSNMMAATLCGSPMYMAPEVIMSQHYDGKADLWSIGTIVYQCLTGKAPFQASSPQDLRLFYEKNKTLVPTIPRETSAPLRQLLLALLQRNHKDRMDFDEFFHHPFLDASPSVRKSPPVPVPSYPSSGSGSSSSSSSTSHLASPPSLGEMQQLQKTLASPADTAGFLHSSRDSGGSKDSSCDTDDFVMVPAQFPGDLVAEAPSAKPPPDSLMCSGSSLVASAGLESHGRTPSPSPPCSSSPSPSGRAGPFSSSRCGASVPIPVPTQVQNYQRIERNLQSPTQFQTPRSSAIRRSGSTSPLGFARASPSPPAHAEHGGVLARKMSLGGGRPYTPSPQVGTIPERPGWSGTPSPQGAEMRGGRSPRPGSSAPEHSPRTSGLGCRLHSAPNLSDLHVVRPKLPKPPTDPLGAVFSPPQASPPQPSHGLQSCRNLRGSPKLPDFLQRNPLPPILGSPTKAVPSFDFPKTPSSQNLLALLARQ

Consider `CCc1cc(N2CCN[C@H](C)C2)ccc1Nc1ncc(C(F)(F)F)c(-c2cc3c(s2)C(=O)N(C2CC2)CCS3(=O)=O)n1` [Example 359, (R)-4-cyclopropyl-7-(2-((2-ethyl-4-(3-methylpiperazin-1-yl)phenyl)amino)-5-(trifluoromethyl)pyrimidin-4-yl)-3,4-dihydrothieno[2,3-f][1,4]thiazepin-5(2H)-one 1,1-dioxide], for which the 50% inhibitory concentration (IC50) was ≤ 5 nM.

On to `CN1CCS(=O)(=O)c2cc(-c3nc(Nc4cn(C5CCNCC5)nc4C4CC4)ncc3C(F)(F)F)sc2C1=O` [Example 141, 7-(2-((3-cyclopropyl-1-(piperidin-4-yl)-1H-pyrazol-4-yl)amino)-5-(trifluoromethyl)pyrimidin-4-yl)-4-methyl-3,4-dihydrothieno[2,3-f][1,4]thiazepin-5(2H)-one 1,1-dioxide], for which the concentration for half-maximal inhibition (IC50) was ≤ 5 nM.

As to `CCc1cc(C2CCN(CCF)CC2)ccc1Nc1ncc(C(F)(F)F)c(-c2cc3c(s2)C(=O)N(C2CC2)CCS3(=O)=O)n1` [Example 282, 4-cyclopropyl-7-(2-((2-ethyl-4-(1-(2-fluoroethyl)piperidin-4-yl)phenyl)amino)-5-(trifluoromethyl)pyrimidin-4-yl)-3,4-dihydrothieno[2,3-f][1,4]thiazepin-5(2H)-one 1,1-dioxide], the IC50 was ≤ 5 nM.

With `C[C@@H]1CN(c2ccc(Nc3ncc(C(F)(F)F)c(-c4cc5c(s4)C(=O)N(C)CCS5(=O)=O)n3)c(C3CC3)c2)CCN1C` [Example 378, (R)-7-(2-((2-cyclopropyl-4-(3,4-dimethylpiperazin-1-yl)phenyl)amino)-5-(trifluoromethyl)pyrimidin-4-yl)-4-methyl-3,4-dihydrothieno[2,3-f][1,4]thiazepin-5(2H)-one 1,1-dioxide], the IC50 is ≤ 5 nM.

As for `C[C@H]1CN(c2ccc(Nc3ncc(C(F)(F)F)c(-c4cc5c(s4)C(=O)N(C4CC4)CCS5(=O)=O)n3)c(C3CC3)c2)C[C@H](C)N1` [Example 327, 4-cyclopropyl-7-(2-((2-cyclopropyl-4-((3S,5S)-3,5-dimethylpiperazin-1-yl)phenyl)amino)-5-(trifluoromethyl)pyrimidin-4-yl)-3,4-dihydrothieno[2,3-f][1,4]thiazepin-5(2H)-one 1,1-dioxide], the IC50 is ≤ 5 nM.

`CCN1CCc2cc(Nc3ncc(C(F)(F)F)c(-c4cc5c(s4)C(=O)N(C4CC4)CCS5(=O)=O)n3)c(Cl)cc2C1` [Example 213, 7-(2-((7-chloro-2-ethyl-1,2,3,4-tetrahydroisoquinolin-6-yl)amino)-5-(trifluoromethyl)pyrimidin-4-yl)-4-cyclopropyl-3,4-dihydrothieno[2,3-f][1,4]thiazepin-5(2H)-one 1,1-dioxide]: the concentration for half-maximal inhibition (IC50) is ≤ 5 nM.

For `CCc1cc(N2CCN(CC3CC3)CC2)ccc1Nc1ncc(C(F)(F)F)c(-c2cc3c(s2)C(=O)N(C2CC2)CCS3(=O)=O)n1` [Example 265, 4-cyclopropyl-7-(2-((4-(4-(cyclopropylmethyl)piperazin-1-yl)-2-ethylphenyl)amino)-5-(trifluoromethyl)pyrimidin-4-yl)-3,4-dihydrothieno[2,3-f][1,4]thiazepin-5(2H)-one 1,1-dioxide], the half-maximal inhibitory concentration (IC50) is ≤ 5 nM.

For the compound `CCc1cc(N2CCN(CC)CC2)ccc1Nc1ncc(C(F)(F)F)c(-c2cc3c(s2)C(=O)N(C2CC2)CCS3(=O)=O)n1` [Example 271, 4-cyclopropyl-7-(2-((2-ethyl-4-(4-ethylpiperazin-1-yl)phenyl)amino)-5-(trifluoromethyl)pyrimidin-4-yl)-3,4-dihydrothieno[2,3-f][1,4]thiazepin-5(2H)-one 1,1-dioxide], the IC50 is ≤ 5 nM.

For the compound `O=C1c2sc(-c3nc(Nc4cc5c(cc4C4CC4)CN(CC4COC4)CC5)ncc3C(F)(F)F)cc2S(=O)(=O)CCN1C1CC1` [Example 234, 4-cyclopropyl-7-(2-((7-cyclopropyl-2-(oxetan-3-ylmethyl)-1,2,3,4-tetrahydroisoquinolin-6-yl)amino)-5-(trifluoromethyl)pyrimidin-4-yl)-3,4-dihydrothieno[2,3-f][1,4]thiazepin-5(2H)-one 1,1-dioxide], the half-maximal inhibitory concentration (IC50) was ≤ 5 nM.
